Common to all, as to format: physicochemical
Series [1] in a line: Hygroscopicity by DVS testing. To be noted: for Desorption curve (cycle 1, desorption): DVS 25° C., from 30% RH to 95% RH. The method, then:
The dynamic vapor sorption (DVS) analysis may be conducted on the DVS Intrinsic system from Surface Measurement Systems (SMS). Temperature: 25° C.: sample amount: 20-40 mg; protective gas and flow rate: N2, 200 mL/min; dm/dt: 0.002%/min; minimum dm/dt equilibration time: 10 min, maximum equilibration time. 180 min; RH range: room humidity to 95% RH to 0% RH to 95% RH: 0% RH to 95% RH to 0% RH; RH gradient: 10% RH (0% RH to 90% RH & 90% RH to 0% RH): 5% RH (90% RH to 95% RH & 95% RH to 90% RH).

Series [2] is described as follows: Solid stability, 60° C./75% RH open, physical stability by XRPD. The following applies: for Crystalline form: XRPD; for Polymorphic transition: 60° C./75% RH open, up to 1 month. The method, then:
Appropriate amounts of samples were weighed and let stand at 60° C./75% RH open to the atmosphere for 7 days, 14 days, and 1 month. Samples of different standing times were evaluated for the physical stability of the crystalline forms by XRPD.

Series [3] in a line: Variable-temperature XRPD / heating test of crystalline forms. The method, then:
The X-ray powder diffraction (XRPD) analysis may be conducted on the X'Pert3 X-ray powder diffraction analyzer with the following parameters: Cu, kα; Kα1 (Å): 1.540598: Kα2 (Å): 1.544426; Kα2/Kα1 intensity ratio: 0.50; voltage: 45 kV; current: 40 mA; divergent slit: ⅛°; scan mode: continuous: scanning range: 3° to 40°: scanning step: 0.0263°; time of step: 46.665 s: scanning time: 5 min 03 s. Alternatively, the analysis may be conducted on the PANalytical Empyrean X-ray powder diffraction analyzer with the following parameters: Cu, kα; Kα1 (Å): 1.540598: Kα2 (Å); 1.544426: Kα2/Kα1 intensity ratio: 0.50: voltage: 45 kV; current; 40 mA: divergent slit: automatic; scan mode: continuous; scanning range: 3° to 40°; scanning step: 0.0167°; time of step: 17.780 s/33.020 s; scanning time: 5 min 32 s/10 min 13 s.

Series [4] can be described thus: Humidity induction test: standing at various humidities at room temperature. The following applies: for Polymorphic transition or not: room temperature, open. From the text:
Some of the crystalline forms prepared in the above examples were investigated in a humidity induction test at room temperature.

Series [5] is described as follows: Solid stability, 60° C. sealed 24 hours and 40° C./75% RH open one week (XRPD, HPLC, KF). The following applies: for Purity (%): HPLC; for Water content (%): KF test; for Polymorphic transition or not: XRPD; for Relative to the initial (%): purity. The source says:
Proton nuclear magnetic resonance may be conducted on the Bruker 400M nuclear magnetic resonance spectrometer, with deuterated chloroform, deuterated methanol, or dimethyl sulfoxide-d6 as the solvent. Water titration (KF test) may be conducted on the Metrohm 870 KF Titrinoplus from Sigma-Aldrich, with ultrapure water for calibration and Hydranal® R-Composite 5 as the titration reagent. HPLC-grade methanol was used to dissolve the solid sample.
High-performance liquid chromatography (HPLC) may be conducted on the Agilent 1260 high-performance liquid chromatograph system (Waters Xbridge C18, 150×4.6 mm, 5 μm column).
In order to further evaluate the solid stability of the crystalline forms of the present invention, appropriate amounts of samples were for at 60° C. in a sealed condition for 24 hours and at 40° C./75% RH open to the atmosphere for a week.

The mark [6] stands for this setting: 43.2% RH (saturated potassium carbonate), 10 days.
[7] abbreviates: 43.2% RH (saturated potassium carbonate), 23 days.
[8] abbreviates: 60% RH (stability chamber), 10 days.
Setting [9] is: 60% RH (stability chamber), 23 days.
Setting [10] is: 84.2% RH (saturated potassium chloride), 10 days.
Setting [11] is: 84.2% RH (saturated potassium chloride), 23 days.
[12] abbreviates: 60° C. sealed 24 hours and 40° C./75% RH open one week.
The mark [13] stands for this setting: 23 days open to the atmosphere at room temperature at 43.2% RH to 84.2% RH.

`C=CC(=O)N1CCN2c3c(c(=O)n(-c4c(C)ccnc4C(C)C)c4nc(-c5c(O)cccc5F)c(Cl)cc34)N(C)C(=O)[C@H]2C1` (single isomer, unassigned) [Amorphous form sample]: the “Desorption curve (cycle 1, desorption)” value in series [1] was “a plateau was observed”. Further, the Crystalline form entry in series [2] (60° C./75% RH (open), 1 month) is “Polymorphic transition”; in series [2] (60° C./75% RH (open), 7 days), “Amorphous form”; in series [2] (Initial, 0 days) it was “Amorphous form”. Also, the “Polymorphic transition” value in series [2] is on record as “occurrence of polymorphic transition”.

As for `C=CC(=O)N1CCN2c3c(c(=O)n(-c4c(C)ccnc4C(C)C)c4nc(-c5c(O)cccc5F)c(Cl)cc34)N(C)C(=O)[C@H]2C1` [Crystalline form 4, (4aR,8R)-3-acryloyl-11-chloro-10-(2-fluoro-6-hydroxyphenyl)-8-(2-isopropyl-4-methylpyridin-3-yl)-6-methyl-2,3,4,4a,6,8-hexahydro-1H-pyrazino[1′,2′:4,5]pyrazino[2,3-c][1,8]naphthyridine-5,7-dione], in series [3] (heating to 80° C. or 130° C. in a N2 atmosphere), the “Crystalline form change on heating (variable-temperature XRPD)” value is on record as “no significant crystalline form changes were observed”.

As for `C=CC(=O)N1CCN2c3c(c(=O)n(-c4c(C)ccnc4C(C)C)c4nc(-c5c(O)cccc5F)c(Cl)cc34)N(C)C(=O)[C@H]2C1` [Crystalline form 6, (4aR,8R)-3-acryloyl-11-chloro-10-(2-fluoro-6-hydroxyphenyl)-8-(2-isopropyl-4-methylpyridin-3-yl)-6-methyl-2,3,4,4a,6,8-hexahydro-1H-pyrazino[1′,2′:4,5]pyrazino[2,3-c][1,8]naphthyridine-5,7-dione], the “Polymorphic transition or not” value in series [4] (22.5% RH (saturated potassium acetate), 10 days) is listed as “No”; in series [4] (22.5% RH (saturated potassium acetate), 23 days) it was “No”; in series [4] (22.5% RH (saturated potassium acetate), 30 days), “No”; in series [4] (setting [6]), “No”; in series [4] (setting [7]), “No”; in series [4] (43.2% RH (saturated potassium carbonate), 30 days), “No”. Moreover, the “Polymorphic transition or not” value in series [4] (setting [8]) is “No”; in series [4] (setting [9]) it was “No”; in series [4] (60% RH (stability chamber), 30 days), “No”; in series [4] (setting [10]), “No”; in series [4] (setting [11]), “No”; in series [4] (84.2% RH (saturated potassium chloride), 30 days), “No”. In addition, the “Polymorphic transition or not” value in series [5] (40° C./75% RH/open, 1 week) is listed as “No”; in series [5] (60° C./sealed, 1 day), “No”. The “Polymorphic transition” value in series [4] (30 days open to the atmosphere at room temperature at 22.5% RH to 84.2% RH) is reported as “neither crystalline form 6 (Example 12) nor crystalline form 3 (Example 3) exhibited polymorphic transition”; in series [5] (setting [12]), “no polymorphic transition”; in series [2], “mild transition”. Besides, the “Desorption curve (cycle 1, desorption)” value in series [1] was “a plateau can be observed”. The “Crystallinity after DVS testing” value in series [1] (after DVS testing) was “only slightly reduced”. For the same compound, the “Purity (%)” value in series [5] (40° C./75% RH/open, 1 week) turned out to be 99.56%; in series [5] (60° C./sealed, 1 day), 99.62%; in series [5] (Initial) it was 99.61%. Moreover, the “Water content (%)” value in series [5] (40° C./75% RH/open, 1 week) is on record as 8.7%; in series [5] (60° C./sealed, 1 day), 6.2%; in series [5] (Initial) it was 9.0%. Also, the “HPLC purity change” value in series [5] (setting [12]) is reported as “no significant decrease in HPLC purity”. Also, the “Relative to the initial (%)” value came out at 99.95% in series [5] (40° C./75% RH/open, 1 week) and 100.01% in series [5] (60° C./sealed, 1 day). Also, the Crystalline form entry in series [2] (Initial, 0 days) is given as “Crystalline form 6”.

`C=CC(=O)N1CCN2c3c(c(=O)n(-c4c(C)ccnc4C(C)C)c4nc(-c5c(O)cccc5F)c(Cl)cc34)N(C)C(=O)[C@H]2C1` [Crystalline form 8, (4aR,8R)-3-acryloyl-11-chloro-10-(2-fluoro-6-hydroxyphenyl)-8-(2-isopropyl-4-methylpyridin-3-yl)-6-methyl-2,3,4,4a,6,8-hexahydro-1H-pyrazino[1′,2′:4,5]pyrazino[2,3-c][1,8]naphthyridine-5,7-dione]: the “Polymorphic transition or not” value in series [4] (setting [6]), in series [4] (setting [7]), in series [4] (setting [8]), in series [4] (setting [9]), in series [4] (setting [10]) and in series [4] (setting [11]) was “No” throughout. Besides, the “Polymorphic transition” value in series [4] (setting [13]) is “neither crystalline form 8 (Example 40) nor crystalline form 9 (Example 42) exhibited polymorphic transition”.

In the case of `C=CC(=O)N1CCN2c3c(c(=O)n(-c4c(C)ccnc4C(C)C)c4nc(-c5c(O)cccc5F)c(Cl)cc34)N(C)C(=O)[C@H]2C1` [Crystalline form 9, (4aR,8R)-3-acryloyl-11-chloro-10-(2-fluoro-6-hydroxyphenyl)-8-(2-isopropyl-4-methylpyridin-3-yl)-6-methyl-2,3,4,4a,6,8-hexahydro-1H-pyrazino[1′,2′:4,5]pyrazino[2,3-c][1,8]naphthyridine-5,7-dione], in series [4] (setting [6]), the “Polymorphic transition or not” value is “No”. Moreover, the “Polymorphic transition” value in series [4] (setting [13]) is on record as “neither crystalline form 8 (Example 40) nor crystalline form 9 (Example 42) exhibited polymorphic transition”. In series [3] (heated to 100° C. and exposed to air), the “XRPD pattern after heating test” value was “identical to that before heating”.

Take `C=CC(=O)N1CCN2c3c(c(=O)n(-c4c(C)ccnc4C(C)C)c4nc(-c5c(O)cccc5F)c(Cl)cc34)N(C)C(=O)[C@H]2C1` [Crystalline form 11, (4aR,8R)-3-acryloyl-11-chloro-10-(2-fluoro-6-hydroxyphenyl)-8-(2-isopropyl-4-methylpyridin-3-yl)-6-methyl-2,3,4,4a,6,8-hexahydro-1H-pyrazino[1′,2′:4,5]pyrazino[2,3-c][1,8]naphthyridine-5,7-dione]: the “Crystalline form change on heating (variable-temperature XRPD)” value in series [3] (holding at 30° C. for 20 minutes and heating to 100 C in a N2 atmosphere) was “no significant crystalline form changes were observed”.

(Values after US20250051333A1, “POLYMORPH OF KRAS INHIBITOR, PREPARATION METHOD THEREFOR, AND USE THEREOF” (GENFLEET THERAPEUTICS (SHANGHAI) INC., priority 2021, published 2025).)
